Data as given in article PMC11564776, “Enzyme stabilisation due to incorporation of a fluorinated non-natural amino acid at the protein surface” (Scientific Reports, 2024).
Read-outs that look alike come from different tables or passages of the source.

Molecular target: T1, WT transketolase (WT TK) (Escherichia coli, UniProt P27302)
T1 construct: gene tktA; full length, N-terminal His6 tag (plasmid pQR791), Ni-NTA purified, tag cleavage not mentioned; homodimer of 73-74 kDa monomers; WT expressed in E. coli XL10-Gold, variants in E. coli C321.dA.exp
T1 sequence (P27302 whole entry): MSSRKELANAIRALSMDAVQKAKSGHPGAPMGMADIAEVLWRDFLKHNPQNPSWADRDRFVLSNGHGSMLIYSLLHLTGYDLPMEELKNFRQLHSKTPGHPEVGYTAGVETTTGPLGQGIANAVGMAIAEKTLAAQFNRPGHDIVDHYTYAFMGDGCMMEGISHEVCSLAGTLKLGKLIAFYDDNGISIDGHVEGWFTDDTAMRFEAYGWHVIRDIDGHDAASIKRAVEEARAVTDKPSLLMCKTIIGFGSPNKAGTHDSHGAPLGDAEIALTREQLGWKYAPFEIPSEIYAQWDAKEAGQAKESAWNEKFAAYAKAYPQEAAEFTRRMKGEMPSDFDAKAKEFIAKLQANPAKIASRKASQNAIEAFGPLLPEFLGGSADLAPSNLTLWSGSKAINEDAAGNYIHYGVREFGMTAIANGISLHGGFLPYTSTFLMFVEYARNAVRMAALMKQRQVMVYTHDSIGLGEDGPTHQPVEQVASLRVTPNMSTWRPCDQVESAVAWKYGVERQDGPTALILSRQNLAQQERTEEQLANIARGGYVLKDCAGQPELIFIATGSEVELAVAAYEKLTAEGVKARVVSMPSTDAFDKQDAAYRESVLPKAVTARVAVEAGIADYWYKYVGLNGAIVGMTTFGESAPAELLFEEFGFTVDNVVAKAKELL
Assay: HPLC of erythrulose formation, initial velocities, Michaelis-Menten fit
Type: biochemical
Details: 50 mM HPA, 1.36 mM ThDP, 5.1 mM MgCl2, 33 mM Tris.HCl, pH 7.0, assay 21 °C, pre-incubated 15 min at 21 °C, standard error in parentheses, read-out: Km (GA)
Text: HPLC of erythrulose formation, initial velocities, Michaelis-Menten fit on WT transketolase (WT TK)

## O=CCO [GA]
non-natural amino acid at 316, 84% incorporation with 9% K316F
  Km: 14 mM
non-natural amino acid at 316, almost 100% incorporation
  Km: 18 mM
